Where two headings read alike, the source gives them in different places.
How the values were obtained:
OAT1 = molecular target: T1, OAT1 (Homo sapiens, UniProt Q4U2R8); assay: OAT1 substrate determination in HEK293 cells; type: in vitro ADME; details: for Uptake ratio: OAT1 vs control cells; for Uptake (Average ± SD), OAT1: OAT1-expressing HEK293 cells; for recovery at 10 μM: human
T1 sequence (Q4U2R8 1-563): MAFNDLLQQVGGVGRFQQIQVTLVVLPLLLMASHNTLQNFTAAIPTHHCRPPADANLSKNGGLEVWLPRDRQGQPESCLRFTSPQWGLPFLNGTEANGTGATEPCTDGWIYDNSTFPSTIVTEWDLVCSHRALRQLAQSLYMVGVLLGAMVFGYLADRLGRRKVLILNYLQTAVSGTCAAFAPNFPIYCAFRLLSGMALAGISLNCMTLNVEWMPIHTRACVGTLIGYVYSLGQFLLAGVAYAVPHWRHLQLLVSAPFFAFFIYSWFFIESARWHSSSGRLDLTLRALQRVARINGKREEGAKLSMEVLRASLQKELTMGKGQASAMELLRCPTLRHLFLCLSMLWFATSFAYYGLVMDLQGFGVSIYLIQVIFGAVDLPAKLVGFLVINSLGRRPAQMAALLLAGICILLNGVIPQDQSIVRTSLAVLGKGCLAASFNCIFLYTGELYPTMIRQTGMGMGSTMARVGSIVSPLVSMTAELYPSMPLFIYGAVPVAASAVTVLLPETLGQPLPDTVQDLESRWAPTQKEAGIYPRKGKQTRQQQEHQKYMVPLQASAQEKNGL

OAT3 [1] = molecular target: T2, OAT3 (Homo sapiens, UniProt Q8TCC7); assay: OAT3 substrate determination in HEK293 cells; type: in vitro ADME; details: for Uptake ratio: OAT3 vs control cells; for Uptake (Average ± SD), OAT3: OAT3-expressing HEK293 cells; for recovery at 10 μM: human
T2 sequence (Q8TCC7 1-542): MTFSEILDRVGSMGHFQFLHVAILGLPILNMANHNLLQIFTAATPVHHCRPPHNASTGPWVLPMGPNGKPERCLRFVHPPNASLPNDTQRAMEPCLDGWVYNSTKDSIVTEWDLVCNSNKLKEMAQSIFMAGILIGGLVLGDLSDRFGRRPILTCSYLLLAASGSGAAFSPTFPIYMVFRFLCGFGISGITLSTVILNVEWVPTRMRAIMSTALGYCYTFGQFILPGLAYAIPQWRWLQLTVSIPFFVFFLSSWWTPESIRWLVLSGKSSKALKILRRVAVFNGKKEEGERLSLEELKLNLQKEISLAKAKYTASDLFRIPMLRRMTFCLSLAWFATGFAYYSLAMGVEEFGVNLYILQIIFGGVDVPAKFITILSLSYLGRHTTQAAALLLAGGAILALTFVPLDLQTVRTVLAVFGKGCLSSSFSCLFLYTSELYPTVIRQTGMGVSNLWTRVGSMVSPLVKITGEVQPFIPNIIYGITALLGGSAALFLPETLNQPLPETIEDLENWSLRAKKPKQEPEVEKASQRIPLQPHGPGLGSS

[2] = low plasma concentrations (1.0 to 2.0 mg/100 mL); cited from earlier work
OAT3 [3] = molecular target: T2, OAT3; assay: OAT3 positive-control inhibition, [3H]-Estrone-3-sulfate probe substrate uptake in HEK293 cells; type: in vitro ADME; details: [3H]-Estrone-3-sulfate (50 nM) probe, inhibitor 100 μM
[4] = dichlorphenamide 10 μM + probenecid 100 μM, 1 min
[5] = dichlorphenamide 10 μM + probenecid 100 μM, 3 min
[6] = dichlorphenamide 10 μM + probenecid 100 μM, 10 min
[7] = dichlorphenamide 10 μM + probenecid 100 μM, control HEK293 cells, 1 min
[8] = dichlorphenamide 10 μM + probenecid 100 μM, control HEK293 cells, 3 min
[9] = dichlorphenamide 10 μM + probenecid 100 μM, control HEK293 cells, 10 min
[10] = dichlorphenamide 10 μM, incubation 1 min
[11] = dichlorphenamide 10 μM, incubation 3 min
[12] = dichlorphenamide 10 μM, incubation 10 min

NS(=O)(=O)c1cc(Cl)c(Cl)c(S(N)(=O)=O)c1 [Dichlorphenamide, 4,5-dichloro-1,3-benzenedisulfonamide]
Substrate of OAT1 (conclusion from Tables 1 and 2) (OAT1; HEK293 cells): is a substrate of OAT1
Uptake ratio (OAT1; [4]): 1.29
Uptake ratio (OAT1; [5]): 1.11
Uptake ratio (OAT1; [6]): 1.01
Uptake ratio (OAT1; dichlorphenamide 10 μM, 1 min): 2.41
Uptake ratio (OAT1; dichlorphenamide 10 μM, 3 min): 2.39
Uptake ratio (OAT1; dichlorphenamide 10 μM, 10 min): 2.23
Uptake (Average ± SD), OAT1 (OAT1; [4]): 54.4 ± 2.7 pmol/mg protein
Uptake (Average ± SD), OAT1 (OAT1; [5]): 135 ± 6 pmol/mg protein
Uptake (Average ± SD), OAT1 (OAT1; [6]): 286 ± 17 pmol/mg protein
Uptake (Average ± SD), Control (OAT1; [7]): 42.2 ± 2.4 pmol/mg protein
Uptake (Average ± SD), Control (OAT1; [8]): 121 ± 8 pmol/mg protein
Uptake (Average ± SD), Control (OAT1; [9]): 284 ± 19 pmol/mg protein
Uptake (Average ± SD), OAT1 (OAT1; [10]): 109 ± 2 pmol/mg protein
Uptake (Average ± SD), OAT1 (OAT1; [11]): 294 ± 14 pmol/mg protein
Uptake (Average ± SD), OAT1 (OAT1; [12]): 591 ± 11 pmol/mg protein
Uptake (Average ± SD), Control (OAT1; dichlorphenamide 10 μM, control HEK293 cells (vector only), incubation 1 min): 45.4 ± 0.4 pmol/mg protein
Uptake (Average ± SD), Control (OAT1; dichlorphenamide 10 μM, control HEK293 cells (vector only), incubation 3 min): 123 ± 6 pmol/mg protein
Uptake (Average ± SD), Control (OAT1; dichlorphenamide 10 μM, control HEK293 cells (vector only), incubation 10 min): 265 ± 8 pmol/mg protein
recovery at 10 μM (OAT1; HEK293 cells expressing OAT1, pH 7.4, read-out: Recovery, OAT1): 98.5%
recovery at 10 μM (OAT1; control HEK293 cells (transfected with vector only), pH 7.4, read-out: Recovery, Control): 95.3%
Substrate of OAT3 (conclusion from Tables 3 and 4) (OAT3 [1]; HEK293 cells): is a substrate of OAT3
Uptake ratio (OAT3 [1]; [4]): 0.987
Uptake ratio (OAT3 [1]; [5]): 1.00
Uptake ratio (OAT3 [1]; [6]): 1.24
Uptake ratio (OAT3 [1]; dichlorphenamide 10 μM, 1 min): 2.26
Uptake ratio (OAT3 [1]; dichlorphenamide 10 μM, 3 min): 2.64
Uptake ratio (OAT3 [1]; dichlorphenamide 10 μM, 10 min): 2.75
Uptake (Average ± SD), OAT3 (OAT3 [1]; [4]): 123 ± 7 pmol/mg protein
Uptake (Average ± SD), OAT3 (OAT3 [1]; [5]): 126 ± 18 pmol/mg protein
Uptake (Average ± SD), OAT3 (OAT3 [1]; [6]): 177 ± 16 pmol/mg protein
Uptake (Average ± SD), Control (OAT3 [1]; [7]): 124 ± 13 pmol/mg protein
Uptake (Average ± SD), Control (OAT3 [1]; [8]): 125 ± 5 pmol/mg protein
Uptake (Average ± SD), Control (OAT3 [1]; [9]): 143 ± 41 pmol/mg protein
Uptake (Average ± SD), OAT3 (OAT3 [1]; [10]): 333 ± 24 pmol/mg protein
Uptake (Average ± SD), OAT3 (OAT3 [1]; [11]): 311 ± 29 pmol/mg protein
Uptake (Average ± SD), OAT3 (OAT3 [1]; [12]): 463 ± 27 pmol/mg protein
Uptake (Average ± SD), Control (OAT3 [1]; dichlorphenamide 10 μM, control HEK293 cells, incubation 1 min): 147 ± 47 pmol/mg protein
Uptake (Average ± SD), Control (OAT3 [1]; dichlorphenamide 10 μM, control HEK293 cells, incubation 3 min): 118 ± 3 pmol/mg protein
Uptake (Average ± SD), Control (OAT3 [1]; dichlorphenamide 10 μM, control HEK293 cells, incubation 10 min): 169 ± 9 pmol/mg protein
recovery at 10 μM (OAT3 [1]; HEK293 cells expressing OAT3, pH 7.4, read-out: Recovery, OAT3): 77.9%
recovery at 10 μM (OAT3 [1]; control HEK293 cells, pH 7.4, read-out: Recovery, Control): 68.8%

Nc1ccc(C(=O)NCC(=O)O)cc1 [aminohippurate, p-aminohippuric acid]
Fraction cleared by the kidneys from the renal blood stream in a single circulation (average) [2]: 90%

CCCN(CCC)S(=O)(=O)c1ccc(C(=O)O)cc1 [Probenecid]
Background corrected uptake rate (OAT3 [3]): 0.0184 pmol/mg/min
Uptake (Average ± SD), OAT3 (OAT3 [3]; OAT3-expressing HEK293 cells): 0.104 ± 0.006 pmol/mg protein
Uptake (Average ± SD), Control (OAT3 [3]; control HEK293 cells): 0.0670 ± 0.0124 pmol/mg protein
activity at 100 μM (OAT3 [3]; human, HEK293 cells expressing OAT3 and control cells, pH 7.4, probe [3H]-Estrone-3-sulfate (50 nM), relative to solvent control, read-out: Percent of control): 3.2%

— patent publication US20210100760A1 (Strongbridge Dublin Limited, priority 2019, published 2021)
